Measured values taken from publication PMC4789278, “Pharmacological inhibition of LSD1 for the treatment of MLL-rearranged leukemia” (Journal of Hematology & Oncology, 2016).
Entries after “also recorded” stand apart in the source; their conditions may differ.

Columns and labels:
[1] = tested on: MV4-11 leukemia cells; assay: Antiproliferation assay (XTT), MV4-11; type: cell-based; details: Homo sapiens, MV4-11, 360 h; 15-day treatment; MLL-rearranged leukemia; read-out: MV4-11 EC50 (antiproliferative)
Procedure: Next, these three compounds were tested for their cellular activity against proliferation of MV4-11 leukemia cells bearing MLL-AF4 fusion oncogene.
(§1) These compounds were incubated with a panel of six human leukemia and solid tumor cell lines, including two MLL-rearranged leukemia cells MV4-11 and Molm-13 containing fusion oncogenes MLL-AF4 and -AF9, respectively. […] Also included in the studies are breast cancer MCF-7 and prostate cancer LNCaP cells.
(§2) Proliferation inhibition assay for suspension leukemia cells was performed using an XTT assay kit (Roche) with our previously described method. Proliferation inhibition assay for solid tumor cell lines MCF-7 and LNCaP was performed using our previous described MTT assay. The antiproliferation EC50 values were determined by Prism, and the reported results were the mean values of at least three independent experiments.

[2] = tested on: Molm-13 leukemia cells; assay: Antiproliferation assay (XTT), Molm-13; type: cell-based; details: Homo sapiens, MOLM-13, 360 h; 15-day treatment; MLL-rearranged leukemia; read-out: Molm-13 EC50 (antiproliferative)
Procedure: as §1, §2

[3] = tested on: breast cancer MCF-7 cells; assay: Antiproliferation assay (MTT), MCF-7; type: cell-based; details: Homo sapiens, MCF7, 360 h, 15-day treatment, read-out: MCF-7 EC50 (antiproliferative)
Procedure: as §1, §2

[4] = tested on: human primary leukemia cells from an AML patient with MLL-ENL fusion oncogene; assay: Colony-forming assay; type: cell-based; details: 336 h, colonies counted after 14 days, read-out: colony-forming ability EC50
Procedure: Colony-forming assay using non-serum culture media represents a useful method to assess self-renewal capacity of stem-like cancer cells. The number of cell colonies formed in the assay reflects the proportion of stem-like cells in a given number of cancer cells. […] Human MLL-rearranged AML samples will be obtained from the Children’s Oncology Group (COG) Biopathology Center, in accordance with the IRB-approved protocol H-24170. The colony-forming assay was performed according to our previously published method. After 14 days, the colony number of each culture dish was counted and imported into Prism 5.0 and EC50 values were determined by using the sigmoidal dose response curve fitting in the software.

[5] = Toxicity in mice (weight, blood test); type: in vivo
From the text: Continuous infusion of 1 using a subcutaneously implanted osmotic pump was used for in vivo studies to avoid the unfavorable pharmacokinetics because this route may provide a stable plasma drug concentration.

[6] = tested on: H3K4me2 in MV4-11 cells; assay: Western blot of histone H3K4 methylation; type: cell-based, human; details: 3 days
Procedure: Compounds 1 and 2 were selected for further biological activity testing. MV4-11 cells were treated with these two compounds for 3 days. […] Other researchers observed the similar results using a different LSD1 inhibitor.
With increasing concentrations of a compound for […], 10^6 cells/well were incubated and histones extracted with the EpiQuik™ Total Histone Extraction Kit (Epigentek) according to the manufacturer’s protocol. Equal amounts of histones (2 μg) were separated on SDS-PAGE and transferred to PVDF membranes. The blots were probed with H3K4-Me2 and H3 primary antibodies (Cell Signaling), followed by antirabbit IgG (Thermo Scientific) secondary antibodies.

[7] = tested on: MV4-11 leukemia; assay: Systemic mouse model of MV4-11 leukemia
From the text: A mouse model of systemic MV4-11 leukemia was established by injecting 10^7 MV4-11 cells/mouse intravenously through the tail veil into NOD-SCID mice with an engraftment rate of 100 %. After 2 weeks, human CD33^+/CD45^+ leukemia cells (0.1–0.5 %) can be detected by FACS in blood samples of the mice. The disease progressed rapidly, causing deaths in ~6 weeks after leukemia transplantation. Thus, upon detection of MV4-11 engraftments, mice were randomly separated into treatment and control groups.
NOD-SCID mice (4 to 6 weeks old) were obtained from Jackson lab (Bar Harbor, ME, USA) and maintained under specific pathogen-free conditions; 10^7 MV4-11 cells/mouse were injected intravenously through the tail veil, and animal weights were monitored twice a week. After 2 weeks when the blood samples showing 0.1–0.5 % CD45+/CD33+ human leukemia cells, mice were randomly segregated into control and treatment groups. […] Animals were sacrificed when >20 % weight loss, hunched posture, ruffled fur, or inactivity was observed. The peripheral blood, spleen, and bone marrow cells were isolated and tested for CD45^+/CD33^+ using FACS. Log-rank analysis was used to determine statistical significance of the survival curves using Prism 5.0.

[8] = target: T1, human MAO-B (Homo sapiens, UniProt P27338); assay: MAO-B inhibition (MAO-Glo); type: biochemical
T1 construct: purchased Sigma
T1 sequence (P27338 1-520): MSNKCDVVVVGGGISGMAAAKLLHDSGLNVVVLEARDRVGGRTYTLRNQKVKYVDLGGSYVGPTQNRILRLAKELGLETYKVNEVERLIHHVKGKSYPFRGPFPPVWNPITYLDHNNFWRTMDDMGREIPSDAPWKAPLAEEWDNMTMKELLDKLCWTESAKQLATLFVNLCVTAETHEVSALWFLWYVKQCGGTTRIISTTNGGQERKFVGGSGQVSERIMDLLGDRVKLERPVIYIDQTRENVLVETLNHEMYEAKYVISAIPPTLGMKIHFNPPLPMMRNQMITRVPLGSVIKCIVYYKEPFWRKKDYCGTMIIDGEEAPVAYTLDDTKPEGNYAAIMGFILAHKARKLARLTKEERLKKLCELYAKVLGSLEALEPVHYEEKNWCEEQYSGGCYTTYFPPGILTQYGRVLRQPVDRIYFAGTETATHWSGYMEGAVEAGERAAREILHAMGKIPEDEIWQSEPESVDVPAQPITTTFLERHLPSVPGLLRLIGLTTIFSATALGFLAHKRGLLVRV
Procedure: Because MAO-A and -B play important roles in the degradation of neurotransmitters (e.g., serotonin and dopamine) in the central nervous system, selective inhibition for LSD1 is highly desirable.
Recombinant human MAO-A and -B were purchased from Sigma. The inhibitory activity was determined using MAO-Glo assay kit (Promega). In brief, following the manufacturer’s protocol, assays were performed in 384-well white plates (Corning) using MAO-A or -B (100 nM) with a final volume of 20 μL. Reactions were quenched after 60 min by adding reconstituted luciferin detection reagent (20 μL/well); 20 min after addition of the detection reagent, the luminescence of each well was measured using Beckman DTX-880 microplate reader. IC50 calculation was similar to that of LSD1.

[9] = tested on: MV4-11 cells; assay: Cell migration assay (transwell); type: cell-based, human; details: treatment for 4 days
Procedure: Importantly, only these stem-like cancer cells can form new tumors when transplanted into a new host, while the other non-stem cancer cells fail to do so. These stem-like cancer cells are more drug resistant and believed to be responsible for tumor metastasis and relapse. […] CD14 and CD11b are two cell surface proteins characteristic to differentiated macrophages/monocytes. […] Similarly, incubation with 2 led to considerably more CD11b^+ cells (Fig. 3b).
Cell migration assay was performed in a 24-well transwell plate with 8-μm polyethylene terephthalate membrane filters (Falcon cell culture insert; Becton-Dickinson) separating the lower from the upper culture chambers, according to the manufacturer’s instructions. […] Triplicate samples of 10^6 cells/well were plated in the upper chamber containing serum-free RPMI-1640. RPMI-1640 supplemented with 10 % FBS in the bottom chamber was used to attract cells to move through the filter. Cells were allowed to incubate at 37 °C for 4 h, after which the cells that had migrated through the pores were harvested in the bottom chamber and counted. Results are presented as means ± s.d.

| IC50 [8] [nM] | SMILES | EC50 [1] [nM] | EC50 [2] [nM] | EC50 [3] [nM] | EC50 [4] [nM] | weight losses and visible signs of toxicity ([5]; 2.5 and 5 mg/kg/day for 28 days, osmotic pump) | blood cell counts and hemoglobin vs control ([5]; blood test on day 28) | cellular levels of H3K4me2 [6] | less leukemia cells in the blood ([7]; 2.5 mg/kg/day for 28 days) [%] | less leukemia cells in the spleen ([7]; 2.5 mg/kg/day for 28 days) [%] | reduction of MV4-11 leukemia cells in the bone marrow ([7]; 2.5 mg/kg/day for 28 days) [%] | human CD33+/CD45+ leukemia cells in the bone marrow (average) ([7]; 2.5 mg/kg/day for 28 days, control 33.6 %) [%] | median survival ([7]; 2.5 mg/kg/day for 28 days, control 34.5 days) [days] | inhibition of leukemia burdens in the bone marrow, spleen, and peripheral blood ([7]; 5 mg/kg) [%] | inhibition rate in the blood ([7]; 5 mg/kg/day for 28 days) [%] | inhibition rate in the bone marrow ([7]; 5 mg/kg/day for 28 days) [%] | inhibition rate in the spleen ([7]; 5 mg/kg/day for 28 days) [%] | median survival ([7]; 5 mg/kg/day for 28 days, control 45 days) [days] | ability of MV4-11 cells to migrate through a membrane with 8-μm pores [9] |
| --- | --- | --- | --- | --- | --- | --- | --- | --- | --- | --- | --- | --- | --- | --- | --- | --- | --- | --- | --- |
| – | CN1CCN(C(=O)CNC2CC2c2ccc(OCc3ccccc3)cc2)CC1 (stereo not drawn) [Compound 1] | 10 | 96 | 1600 | 430 | did not cause weight losses as well as any visible signs of toxicity | no significant differences; also recorded: no significant changes in blood cell counts | increase cellular levels of H3K4me2 in a dose-dependent manner | 92 | 81 | 80 | 6.7 | 43 | > 89 | 99 | 96 | 89 | 60 | – |
| 480000 | CN1CCN(C(=O)CNC2CC2c2ccc(-c3ccc(F)nc3)cc2)CC1 (stereo not drawn) [Compound 2] | – | – | – | 520 | – | – | increase cellular levels of H3K4me2 in a dose-dependent manner | – | – | – | – | – | – | – | – | – | – | reduced ability for MV4-11 cells to migrate |
